Test results as given in ChEMBL document CHEMBL1201862, “PubChem BioAssay data set” (2004).
The source made the active and inactive calls.

Assays:
Genome polyprotein = Genome polyprotein (dengue virus type 2, UniProt P29990); test: Dengue-2 NS5 methyltransferase inhibitors, primary screen, biochemical, confirmation dose response (AID 588689); type: functional
[1] = molecular target: T1, Histone-lysine N-methyltransferase NSD2 (Homo sapiens, UniProt O96028); type: biochemical
T1 sequence (O96028 whole entry): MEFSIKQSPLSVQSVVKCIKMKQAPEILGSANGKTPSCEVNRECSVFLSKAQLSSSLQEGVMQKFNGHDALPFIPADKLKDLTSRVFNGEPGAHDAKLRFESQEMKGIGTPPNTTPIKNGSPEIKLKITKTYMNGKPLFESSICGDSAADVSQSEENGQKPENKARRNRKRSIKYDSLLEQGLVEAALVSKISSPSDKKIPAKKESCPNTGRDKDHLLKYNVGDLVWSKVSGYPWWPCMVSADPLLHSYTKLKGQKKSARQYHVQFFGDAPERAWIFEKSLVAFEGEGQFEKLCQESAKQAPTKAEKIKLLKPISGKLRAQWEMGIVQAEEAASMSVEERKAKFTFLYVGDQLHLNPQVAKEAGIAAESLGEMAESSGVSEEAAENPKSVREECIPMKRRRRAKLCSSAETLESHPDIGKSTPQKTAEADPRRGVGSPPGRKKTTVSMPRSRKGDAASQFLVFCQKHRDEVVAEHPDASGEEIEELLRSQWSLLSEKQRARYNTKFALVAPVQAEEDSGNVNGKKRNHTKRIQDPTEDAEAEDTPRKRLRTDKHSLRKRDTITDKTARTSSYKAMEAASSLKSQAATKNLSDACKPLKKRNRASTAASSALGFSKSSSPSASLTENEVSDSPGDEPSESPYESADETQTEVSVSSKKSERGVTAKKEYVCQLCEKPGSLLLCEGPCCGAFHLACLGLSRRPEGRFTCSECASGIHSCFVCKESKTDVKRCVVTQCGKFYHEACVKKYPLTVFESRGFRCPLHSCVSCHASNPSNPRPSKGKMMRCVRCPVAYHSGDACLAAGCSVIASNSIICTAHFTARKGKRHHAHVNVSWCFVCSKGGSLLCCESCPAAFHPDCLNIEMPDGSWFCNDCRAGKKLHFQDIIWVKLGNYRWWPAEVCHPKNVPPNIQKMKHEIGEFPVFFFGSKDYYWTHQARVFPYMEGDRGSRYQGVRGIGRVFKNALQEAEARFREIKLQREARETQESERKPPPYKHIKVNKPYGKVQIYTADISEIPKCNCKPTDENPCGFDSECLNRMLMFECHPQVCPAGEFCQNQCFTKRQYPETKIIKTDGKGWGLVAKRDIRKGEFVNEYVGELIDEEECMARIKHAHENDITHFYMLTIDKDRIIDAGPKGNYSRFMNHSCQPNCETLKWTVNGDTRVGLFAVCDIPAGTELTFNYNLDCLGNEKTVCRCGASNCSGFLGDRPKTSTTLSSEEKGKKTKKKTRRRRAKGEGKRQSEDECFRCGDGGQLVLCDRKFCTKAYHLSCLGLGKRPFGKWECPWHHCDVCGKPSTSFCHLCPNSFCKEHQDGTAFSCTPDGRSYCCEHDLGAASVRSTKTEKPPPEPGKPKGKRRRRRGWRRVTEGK

[2] = molecular target: T2, Endoribonuclease toxin MazF (Escherichia coli K-12, UniProt P0AE70); test: MazF endoribonuclease activators, SAR follow-up, biochemical, fluorescence, single-stranded RNA substrate (AID 588603); type: functional
T2 sequence (P0AE70 whole entry): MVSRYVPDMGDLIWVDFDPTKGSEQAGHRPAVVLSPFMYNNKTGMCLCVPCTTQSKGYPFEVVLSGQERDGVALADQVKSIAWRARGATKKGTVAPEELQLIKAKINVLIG

Mu-type opioid receptor = Mu-type opioid receptor (Homo sapiens, UniProt P35372); test: Counterscreen for agonists of heterodimerization of the mu 1 (OPRM1) and delta 1 (OPRD1) opioid receptors: Luminescence-based cell-based high throughput dose response assay to identify agonists of OPRM1 homodimerization.; type: functional;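 also: U2OS cells expressing OPRM1 and beta-arrestin as split beta-galactosidase partners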
Mu-type opioid receptor, sequence (P35372 whole entry): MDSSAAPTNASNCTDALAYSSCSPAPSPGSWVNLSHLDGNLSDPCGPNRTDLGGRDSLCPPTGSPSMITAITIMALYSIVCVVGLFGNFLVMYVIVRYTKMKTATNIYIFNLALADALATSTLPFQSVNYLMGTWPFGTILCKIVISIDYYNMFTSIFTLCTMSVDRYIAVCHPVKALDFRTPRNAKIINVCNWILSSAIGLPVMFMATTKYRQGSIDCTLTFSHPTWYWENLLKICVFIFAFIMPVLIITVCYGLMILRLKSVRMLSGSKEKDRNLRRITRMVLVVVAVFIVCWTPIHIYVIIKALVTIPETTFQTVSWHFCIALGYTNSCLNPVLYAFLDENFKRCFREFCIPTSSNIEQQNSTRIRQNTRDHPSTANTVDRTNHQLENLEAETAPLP

[3] = molecular target: T2, Endoribonuclease toxin MazF; test: SAR analysis of small molecule activators of the MazEF TA System via a fluorescence-based single-stranded RNase assay counterscreen. [Related pubchem assays (depositor defined):AID504720, AID504743]; type: functional
[4] = molecular target: Glutathione-S-transferase (Schistosoma japonicum, UniProt Q26513); test: biotin-GST/anti-GST TR-FRET signal inhibitors, dose response, artefact control for Vif-APOBEC3G degradation inhibitor project, biochemical (AID 1117362); type: functional
Glutathione-S-transferase, sequence (Q26513 whole entry): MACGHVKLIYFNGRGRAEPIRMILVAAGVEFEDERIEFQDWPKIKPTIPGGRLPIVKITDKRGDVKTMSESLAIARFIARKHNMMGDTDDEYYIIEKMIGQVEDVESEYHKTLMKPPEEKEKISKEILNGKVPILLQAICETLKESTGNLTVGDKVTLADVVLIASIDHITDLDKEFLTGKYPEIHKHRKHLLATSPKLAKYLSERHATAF

[5] = Luminescence Cell-Based Dose Response HTS to Identify Inhibitors of 5'UTR Stem-Loop Driven Prion Protein mRNA Translation in H4 Neuroglioblastoma Cells. [Related pubchem assays: 1827 (Project Summary), 1813 (Primary HTS)]; type: functional
BJ = test: cytotoxicity toward BJ-TERT-LT-ST fibroblasts, dose response, cell-based, RAS-independent, luminescence (AID 1935); type: functional; conditions: Homo sapiens;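 also: BJ fibroblasts immortalized with TERT plus LT and ST oncogenes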
[6] = cytotoxicity toward DRD oncogenic fibroblasts, dose response, cell-based, non-viral oncogenic, luminescence (AID 1934); type: functional; conditions: Homo sapiens
Streptococcus = test: Group A Streptococcus viability loss, dose response, counter-screen for streptokinase expression inhibitor project, luminescence, BacTiterGlo (AID 1915); type: functional, organism-based;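 also: potency for reduction of bacterial viability or growth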
[7] = molecular target: T3, RNA-editing ligase 1, mitochondrial (Trypanosoma brucei brucei, UniProt P86926); test: TbREL1 ligase inhibitors, dose response, biochemical, fluorescence, Trypanosoma brucei (AID 1117295); type: functional
T3 sequence (P86926 whole entry): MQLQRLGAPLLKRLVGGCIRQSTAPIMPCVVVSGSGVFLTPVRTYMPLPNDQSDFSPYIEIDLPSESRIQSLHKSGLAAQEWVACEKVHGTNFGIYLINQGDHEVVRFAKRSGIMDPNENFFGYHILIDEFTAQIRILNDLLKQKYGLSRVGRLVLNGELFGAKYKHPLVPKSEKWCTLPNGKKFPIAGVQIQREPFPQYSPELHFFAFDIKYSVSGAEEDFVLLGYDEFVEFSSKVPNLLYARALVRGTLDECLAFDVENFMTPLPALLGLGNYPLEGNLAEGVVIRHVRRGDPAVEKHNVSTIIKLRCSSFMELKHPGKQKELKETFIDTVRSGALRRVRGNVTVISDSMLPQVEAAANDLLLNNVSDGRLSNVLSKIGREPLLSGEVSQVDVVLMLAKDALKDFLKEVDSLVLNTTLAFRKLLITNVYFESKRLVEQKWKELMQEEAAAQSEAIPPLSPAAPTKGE

Genome polyprotein, sequence (P29990 2492-3391 limits assumed): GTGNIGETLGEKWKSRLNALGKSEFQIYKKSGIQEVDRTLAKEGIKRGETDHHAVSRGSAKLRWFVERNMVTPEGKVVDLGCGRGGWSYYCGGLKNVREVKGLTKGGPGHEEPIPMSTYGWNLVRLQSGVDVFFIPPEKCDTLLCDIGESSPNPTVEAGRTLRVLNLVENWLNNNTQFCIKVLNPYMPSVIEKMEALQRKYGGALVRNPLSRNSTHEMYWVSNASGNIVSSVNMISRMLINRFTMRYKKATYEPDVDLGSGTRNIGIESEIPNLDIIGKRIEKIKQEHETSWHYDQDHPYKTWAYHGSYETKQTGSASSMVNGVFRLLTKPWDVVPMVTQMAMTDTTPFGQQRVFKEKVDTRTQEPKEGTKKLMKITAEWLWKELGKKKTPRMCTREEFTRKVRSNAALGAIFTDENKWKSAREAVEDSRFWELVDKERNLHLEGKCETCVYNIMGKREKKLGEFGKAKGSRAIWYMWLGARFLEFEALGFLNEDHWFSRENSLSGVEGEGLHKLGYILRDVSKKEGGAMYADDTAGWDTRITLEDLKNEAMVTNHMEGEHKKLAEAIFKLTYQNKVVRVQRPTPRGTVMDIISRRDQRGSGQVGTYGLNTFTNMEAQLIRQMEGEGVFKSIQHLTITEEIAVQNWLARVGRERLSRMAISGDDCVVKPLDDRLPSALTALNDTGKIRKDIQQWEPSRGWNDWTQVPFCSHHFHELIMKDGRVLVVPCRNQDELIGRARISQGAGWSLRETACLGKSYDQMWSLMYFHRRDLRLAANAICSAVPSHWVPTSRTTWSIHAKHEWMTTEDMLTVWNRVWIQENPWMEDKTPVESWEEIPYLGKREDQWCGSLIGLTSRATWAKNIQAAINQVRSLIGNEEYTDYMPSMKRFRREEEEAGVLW

| SMILES | IC50 (Genome polyprotein) | AC50 [1] | EC50 [2] | EC50 (Mu-type opioid receptor) | EC50 [3] | IC50 [4] | EC50 [5] | EC50 (BJ) | EC50 [6] | EC50 (Streptococcus) | IC50 [7] |
| --- | --- | --- | --- | --- | --- | --- | --- | --- | --- | --- | --- |
| O=C(CCN1C(=O)/C(=C\c2ccco2)SC1=S)Nc1ccc(C(=O)O)c(O)c1 | > 100 µM (active) | 13.8 µM (active) |  |  |  |  |  |  |  |  |  |
| O=C1C=C(c2c(O)ccc3ccccc23)c2ccccc2C1=O | 5.91 µM (active) | 1.7 µM (active) | > 99 µM (inactive) | > 92.4 µM (inactive) | > 99 µM (inactive) | > 100 µM (active) |  |  |  |  |  |
| Cc1nc2c(=O)n(C)c(=O)nc-2n(C)n1 |  |  |  |  |  |  | 0.251 µM (inconclusive) | 4.95 µM (inconclusive) | 4.39 µM (active) | 9.31 µM (active) | 0.411 µM (active) |
